Test results from ChEMBL document CHEMBL4138146, “A Schmidt rearrangement-mediated synthesis of novel tetrahydro-benzo[1,4]diazepin-5-ones as potential anticancer and antiprotozoal agents” (Eur J Med Chem, 2017).
Converted amounts (≈) assume the structure as drawn.

test system: K562; assay: Growth inhibition of human K562 cells assessed as cell growth at 10 uM incubated for 48 hrs by sulforhodamine B assay relative to control; format: functional; details: K562, 48 h, read-out: Activity

SMILES | growth at 10 µM
CCCCn1c(=O)c(C2CNC(=O)c3ccccc3N2)cc2ccccc21 (stereo not drawn) | 99.3%
O=C1NCC(c2cc3ccc4ccccc4c3[nH]c2=O)Nc2ccccc21 (stereo not drawn) | 97.3%

test system: EKVX; assay: Growth inhibition of human EKVX cells assessed as cell growth at 10 uM incubated for 48 hrs by sulforhodamine B assay relative to control; format: functional; details: read-out: Activity

SMILES | growth at 10 µM
CCCCn1c(=O)c(C2CNC(=O)c3ccccc3N2)cc2ccccc21 (stereo not drawn) | 103%
O=C1NCC(c2cc3ccc4ccccc4c3[nH]c2=O)Nc2ccccc21 (stereo not drawn) | 96.4%

test system: HCT-15; assay: Growth inhibition of human HCT15 cells assessed as cell growth at 10 uM incubated for 48 hrs by sulforhodamine B assay relative to control; format: functional; details: HCT-15, 48 h, read-out: Activity

SMILES | growth at 10 µM
CCCCn1c(=O)c(C2CNC(=O)c3ccccc3N2)cc2ccccc21 (stereo not drawn) | 101%
O=C1NCC(c2cc3ccc4ccccc4c3[nH]c2=O)Nc2ccccc21 (stereo not drawn) | 102%

test system: SNB-75; assay: Growth inhibition of human SNB75 cells assessed as cell growth at 10 uM incubated for 48 hrs by sulforhodamine B assay relative to control; format: functional; details: SNB-75, 48 h, read-out: Activity

SMILES | growth at 10 µM
CCCCn1c(=O)c(C2CNC(=O)c3ccccc3N2)cc2ccccc21 (stereo not drawn) | 84%
O=C1NCC(c2cc3ccc4ccccc4c3[nH]c2=O)Nc2ccccc21 (stereo not drawn) | 107%

test system: M14; assay: Growth inhibition of human M14 cells assessed as cell growth at 10 uM incubated for 48 hrs by sulforhodamine B assay relative to control; format: functional; details: M14, 48 h, read-out: Activity

SMILES | growth at 10 µM
CCCCn1c(=O)c(C2CNC(=O)c3ccccc3N2)cc2ccccc21 (stereo not drawn) | 107%
O=C1NCC(c2cc3ccc4ccccc4c3[nH]c2=O)Nc2ccccc21 (stereo not drawn) | 102%

test system: SF-295; assay: Growth inhibition of human SF295 cells assessed as cell growth at 10 uM incubated for 48 hrs by sulforhodamine B assay relative to control; format: functional; details: SF-295, 48 h, read-out: Activity

SMILES | growth at 10 µM
CCCCn1c(=O)c(C2CNC(=O)c3ccccc3N2)cc2ccccc21 (stereo not drawn) | 96.8%
O=C1NCC(c2cc3ccc4ccccc4c3[nH]c2=O)Nc2ccccc21 (stereo not drawn) | 100%

test system: U-937; assay: Cytotoxicity against human U937 cells after 72 hrs by MTT assay; format: functional; details: U-937, 72 h, read-out: LC50 (the source's name)

SMILES | CC50
O=C1NCC(c2cc3ccc4ccccc4c3[nH]c2=O)Nc2ccccc21 (stereo not drawn) | 8.3 µg/mL (≈ 23.4 µM)

test system: LOX IMVI; assay: Growth inhibition of human LOXIMVI cells assessed as cell growth at 10 uM incubated for 48 hrs by sulforhodamine B assay relative to control; format: functional; details: read-out: Activity

SMILES | growth at 10 µM
CCCCn1c(=O)c(C2CNC(=O)c3ccccc3N2)cc2ccccc21 (stereo not drawn) | 97.2%
O=C1NCC(c2cc3ccc4ccccc4c3[nH]c2=O)Nc2ccccc21 (stereo not drawn) | 90.6%

test system: SK-MEL-5; assay: Growth inhibition of human SK-MEL-5 cells assessed as cell growth at 10 uM incubated for 48 hrs by sulforhodamine B assay relative to control; format: functional; details: SK-MEL-5, 48 h, read-out: Activity

SMILES | growth at 10 µM
CCCCn1c(=O)c(C2CNC(=O)c3ccccc3N2)cc2ccccc21 (stereo not drawn) | 102%
O=C1NCC(c2cc3ccc4ccccc4c3[nH]c2=O)Nc2ccccc21 (stereo not drawn) | 99.2%

test system: NCI-H460; assay: Growth inhibition of human NCI-H460 cells assessed as cell growth at 10 uM incubated for 48 hrs by sulforhodamine B assay relative to control; format: functional; details: NCI-H460, 48 h, read-out: Activity

SMILES | growth at 10 µM
CCCCn1c(=O)c(C2CNC(=O)c3ccccc3N2)cc2ccccc21 (stereo not drawn) | 102%
O=C1NCC(c2cc3ccc4ccccc4c3[nH]c2=O)Nc2ccccc21 (stereo not drawn) | 82.3%

test system: SF-268; assay: Growth inhibition of human SF268 cells assessed as cell growth at 10 uM incubated for 48 hrs by sulforhodamine B assay relative to control; format: functional; details: SF-268, 48 h, read-out: Activity

SMILES | growth at 10 µM
CCCCn1c(=O)c(C2CNC(=O)c3ccccc3N2)cc2ccccc21 (stereo not drawn) | 98.9%
O=C1NCC(c2cc3ccc4ccccc4c3[nH]c2=O)Nc2ccccc21 (stereo not drawn) | 77.8%

test system: Hs-578T; assay: Growth inhibition of human Hs 578T cells assessed as cell growth at 10 uM incubated for 48 hrs by sulforhodamine B assay relative to control; format: functional; details: read-out: Activity

SMILES | growth at 10 µM
CCCCn1c(=O)c(C2CNC(=O)c3ccccc3N2)cc2ccccc21 (stereo not drawn) | 94.6%
O=C1NCC(c2cc3ccc4ccccc4c3[nH]c2=O)Nc2ccccc21 (stereo not drawn) | 93.9%

test system: Plasmodium falciparum; assay: Antimalarial activity against chloroquine-sensitive Plasmodium falciparum 3D7 incubated for 48 hrs by malstat reagent based LDH release assay; format: functional, organism-based; details: 3D7, 48 h

SMILES | EC50
O=C1NCC(c2cc3ccc4ccccc4c3[nH]c2=O)Nc2ccccc21 (stereo not drawn) | > 20 µg/mL

test system: MOLT-4; assay: Growth inhibition of human MOLT4 cells assessed as cell growth at 10 uM incubated for 48 hrs by sulforhodamine B assay relative to control; format: functional; details: MOLT-4, 48 h, read-out: Activity

SMILES | growth at 10 µM
CCCCn1c(=O)c(C2CNC(=O)c3ccccc3N2)cc2ccccc21 (stereo not drawn) | 46.4%
O=C1NCC(c2cc3ccc4ccccc4c3[nH]c2=O)Nc2ccccc21 (stereo not drawn) | 90.4%

test system: MDA-MB-435; assay: Growth inhibition of human MDA-MB-435 cells assessed as cell growth at 10 uM incubated for 48 hrs by sulforhodamine B assay relative to control; format: functional; details: MDA-MB-435, 48 h, read-out: Activity

SMILES | growth at 10 µM
CCCCn1c(=O)c(C2CNC(=O)c3ccccc3N2)cc2ccccc21 (stereo not drawn) | 105%
O=C1NCC(c2cc3ccc4ccccc4c3[nH]c2=O)Nc2ccccc21 (stereo not drawn) | 106%

test system: HL-60(TB); assay: Growth inhibition of human HL-60(TB) cells assessed as cell growth at 10 uM incubated for 48 hrs by sulforhodamine B assay relative to control; format: functional; details: HL-60, 48 h, read-out: Activity

SMILES | growth at 10 µM
CCCCn1c(=O)c(C2CNC(=O)c3ccccc3N2)cc2ccccc21 (stereo not drawn) | 96.7%
O=C1NCC(c2cc3ccc4ccccc4c3[nH]c2=O)Nc2ccccc21 (stereo not drawn) | 86.7%

test system: SK-MEL-2; assay: Growth inhibition of human SK-MEL-2 cells assessed as cell growth at 10 uM incubated for 48 hrs by sulforhodamine B assay relative to control; format: functional; details: SK-MEL-2, 48 h, read-out: Activity

SMILES | growth at 10 µM
CCCCn1c(=O)c(C2CNC(=O)c3ccccc3N2)cc2ccccc21 (stereo not drawn) | 106%
O=C1NCC(c2cc3ccc4ccccc4c3[nH]c2=O)Nc2ccccc21 (stereo not drawn) | 92.2%

test system: HCC 2998; assay: Growth inhibition of human HCC2998 cells assessed as cell growth at 10 uM incubated for 48 hrs by sulforhodamine B assay relative to control; format: functional; details: HCC 2998, 48 h, read-out: Activity

SMILES | growth at 10 µM
CCCCn1c(=O)c(C2CNC(=O)c3ccccc3N2)cc2ccccc21 (stereo not drawn) | 108%
O=C1NCC(c2cc3ccc4ccccc4c3[nH]c2=O)Nc2ccccc21 (stereo not drawn) | 97.8%

test system: DU-145; assay: Growth inhibition of human DU145 cells assessed as cell growth at 10 uM incubated for 48 hrs by sulforhodamine B assay relative to control; format: functional; details: DU-145, 48 h, read-out: Activity

SMILES | growth at 10 µM
CCCCn1c(=O)c(C2CNC(=O)c3ccccc3N2)cc2ccccc21 (stereo not drawn) | 108%
O=C1NCC(c2cc3ccc4ccccc4c3[nH]c2=O)Nc2ccccc21 (stereo not drawn) | 77.3%

test system: SR; assay: Growth inhibition of human SR cells assessed as cell growth at 10 uM incubated for 48 hrs by sulforhodamine B assay relative to control; format: functional; details: read-out: Activity

SMILES | growth at 10 µM
CCCCn1c(=O)c(C2CNC(=O)c3ccccc3N2)cc2ccccc21 (stereo not drawn) | 102%
O=C1NCC(c2cc3ccc4ccccc4c3[nH]c2=O)Nc2ccccc21 (stereo not drawn) | 56.4%

test system: MCF7; assay: Growth inhibition of human MCF7 cells assessed as cell growth at 10 uM incubated for 48 hrs by sulforhodamine B assay relative to control; format: functional; details: MCF7, 48 h, read-out: Activity

SMILES | growth at 10 µM
CCCCn1c(=O)c(C2CNC(=O)c3ccccc3N2)cc2ccccc21 (stereo not drawn) | 99.6%
O=C1NCC(c2cc3ccc4ccccc4c3[nH]c2=O)Nc2ccccc21 (stereo not drawn) | 33.4%

test system: CAKI-1; assay: Growth inhibition of human Caki1 cells assessed as cell growth at 10 uM incubated for 48 hrs by sulforhodamine B assay relative to control; format: functional; details: CAKI-1, 48 h, read-out: Activity

SMILES | growth at 10 µM
CCCCn1c(=O)c(C2CNC(=O)c3ccccc3N2)cc2ccccc21 (stereo not drawn) | 85.8%
O=C1NCC(c2cc3ccc4ccccc4c3[nH]c2=O)Nc2ccccc21 (stereo not drawn) | 85.7%

test system: Leishmania panamensis; assay: Antileishmanial activity against EpiR/GFP fused Leishmania panamensis MHOM/CO/87/UA140 intracellular amastigotes infected in human […] cells after 72 hrs by flow cytometric method; format: functional, organism-based; details: MHOM/CO/87/UA140, 72 h

SMILES | EC50
O=C1NCC(c2cc3ccc4ccccc4c3[nH]c2=O)Nc2ccccc21 (stereo not drawn) | 4.98 µg/mL (≈ 14 µM)

test system: BT-549; assay: Growth inhibition of human BT549 cells assessed as cell growth at 10 uM incubated for 48 hrs by sulforhodamine B assay relative to control; format: functional; details: BT-549, 48 h, read-out: Activity

SMILES | growth at 10 µM
CCCCn1c(=O)c(C2CNC(=O)c3ccccc3N2)cc2ccccc21 (stereo not drawn) | 97.8%
O=C1NCC(c2cc3ccc4ccccc4c3[nH]c2=O)Nc2ccccc21 (stereo not drawn) | 93.1%

test system: PC-3; assay: Growth inhibition of human PC3 cells assessed as cell growth at 10 uM incubated for 48 hrs by sulforhodamine B assay relative to control; format: functional; details: PC-3, 48 h, read-out: Activity

SMILES | growth at 10 µM
CCCCn1c(=O)c(C2CNC(=O)c3ccccc3N2)cc2ccccc21 (stereo not drawn) | 106%
O=C1NCC(c2cc3ccc4ccccc4c3[nH]c2=O)Nc2ccccc21 (stereo not drawn) | 88.8%

test system: MDA-MB-231; assay: Growth inhibition of human MDA-MB-231 cells assessed as cell growth at 10 uM incubated for 48 hrs by sulforhodamine B assay relative to control; format: functional; details: MDA-MB-231, 48 h, read-out: Activity

SMILES | growth at 10 µM
CCCCn1c(=O)c(C2CNC(=O)c3ccccc3N2)cc2ccccc21 (stereo not drawn) | 77.5%
O=C1NCC(c2cc3ccc4ccccc4c3[nH]c2=O)Nc2ccccc21 (stereo not drawn) | 65.3%

test system: 786-0; assay: Growth inhibition of human 786-0 cells assessed as cell growth at 10 uM incubated for 48 hrs by sulforhodamine B assay relative to control; format: functional; details: 786-0, 48 h, read-out: Activity

SMILES | growth at 10 µM
CCCCn1c(=O)c(C2CNC(=O)c3ccccc3N2)cc2ccccc21 (stereo not drawn) | 92.4%
O=C1NCC(c2cc3ccc4ccccc4c3[nH]c2=O)Nc2ccccc21 (stereo not drawn) | 92.8%

test system: RPMI-8226; assay: Growth inhibition of human RPMI8226 cells assessed as cell growth at 10 uM incubated for 48 hrs by sulforhodamine B assay relative to control; format: functional; details: RPMI-8226, 48 h, read-out: Activity

SMILES | growth at 10 µM
CCCCn1c(=O)c(C2CNC(=O)c3ccccc3N2)cc2ccccc21 (stereo not drawn) | 109%
O=C1NCC(c2cc3ccc4ccccc4c3[nH]c2=O)Nc2ccccc21 (stereo not drawn) | 109%
